Series [1] can be described thus: Cmax in human NCI-H2228 cell xenografted NOD.CB17-Prkdcscid/J mouse tumor at 1 mg/kg/day for 5 days by HPLC-MS analysis. It counts as ADME, organism-based, Neoplasm. As to conditions: route po, time 5 day.
The target of another series is EML4-ALK (Homo sapiens, UniProt Q9UM73). The class given is cell-based, BaF3.
A short description of series [2]: AUC (0 to 24 hrs) in human NCI-H2228 cell xenografted NOD.CB17-Prkdcscid/J mouse plasma at 10 mg/kg/day for 5 days by HPLC-MS analysis. It counts as ADME, organism-based. As to conditions: route po, time 5 day.
For series [3], the target named is Tyrosine-protein kinase receptor TYRO3 (Homo sapiens, UniProt Q06418).
Another series concerns the target Ephrin type-A receptor 6 (Homo sapiens, UniProt Q9UF33).
Series [4] has as its target Tyrosine-protein kinase FRK (Homo sapiens, UniProt P42685).
Series [5] has as its system NCI-H2228. As to the kind of experiment: Antitumor activity against human NCI-H2228 cells xenografted in NOD.CB17-Prkdcscid/J mouse assessed as tumor regression at 30 mg/kg, po administered once daily for 2 weeks relative to control. The class given is functional.
Series [6] deals with NPM/ALK (Nucleophosmin/ALK tyrosine kinase receptor) (Homo sapiens, UniProt Q9UM73).
The nature of series [7]: Tmax in human NCI-H2228 cell xenografted NOD.CB17-Prkdcscid/J mouse tumor at 1 mg/kg/day for 5 days by HPLC-MS analysis. It counts as ADME, organism-based, Neoplasm. As to conditions: route po, time 5 day.
The target in series [8] is Tyrosine-protein kinase Lck (Homo sapiens, UniProt P06239).
The nature of series [9]: Ratio of drug level in tumor to plasma of hEML4-ALK transgenic C57BL/6J mouse at 10 to 100 mg/kg, po administered daily for 10 days and measured 24 hrs post-last dose. It counts as ADME, organism-based. As to conditions: dose 10-100 mg/kg, time 11 day.
The nature of series [10]: Ratio of Cmax in human NCI-H2228 cell xenografted NOD.CB17-Prkdcscid/J mouse tumor to plasma at 10 mg/kg/day for 5 days by HPLC-MS analysis. It counts as ADME, organism-based. As to conditions: tumor and plasma, route po, time 5 day.
Series [11] deals with Proto-oncogene tyrosine-protein kinase ROS (Homo sapiens, UniProt P08922).
In series [12] the test system is NCI-H2228. Nature of the series: Antitumor activity against human NCI-H2228 cells xenografted in NOD.CB17-Prkdcscid/J mouse assessed as tumor growth inhibition at 30 mg/kg, po administered once daily for 2 weeks relative to control. It counts as functional. The conditions noted are these: NCI-H2228, 336 h, read-out: TGI.
Series [13] is described as follows: Tmax in human NCI-H2228 cell xenografted NOD.CB17-Prkdcscid/J mouse tumor at 10 mg/kg/day for 5 days by HPLC-MS analysis. It counts as ADME, organism-based, Neoplasm. As to conditions: route po, time 5 day.
A further series concerns NCI-H2228-Luc. As to conditions: dose 30 mg/kg; route po; time 90 day.
Series [14] is described as follows: Cmax in human NCI-H2228 cell xenografted NOD.CB17-Prkdcscid/J mouse plasma at 10 mg/kg/day for 5 days by HPLC-MS analysis. It counts as ADME, organism-based. The conditions noted are these: route po, time 5 day.
Series [15] deals with ALK tyrosine kinase receptor (Homo sapiens, UniProt Q9UM73). Nature of the series: Inhibition of ALK phosphorylation in human NCI-H2228 cells assessed as phosphorylated ALK level at 100 nmol/L measured after 4 hrs by Western blot analysis relative to control. The class given is cell-based. The arrangement: scale not given: the % may be the effect or the level left.
Series [16] relates to NCI-H2228. Nature of the series: Potentiation of pemetrexed-induced antitumor activity against human NCI-H2228 cells xenografted in NOD.CB17-Prkdcscid/J mouse assessed as reduction in tumor volume at 10 mg/kg, po administered once daily for 5 days. The class given is functional, organism-based. The conditions noted are these: time 5.0 day.
Series [17] is described as follows: AUC (0 to 24 hrs) in human NCI-H2228 cell xenografted NOD.CB17-Prkdcscid/J mouse tumor at 1 mg/kg/day for 5 days by HPLC-MS analysis. The class given is ADME, organism-based, Neoplasm. The conditions noted are these: in vivo, po, 120 h, time 5 day.
Series [18] deals with Non-receptor tyrosine-protein kinase TNK1 (Homo sapiens, UniProt Q13470).
Another series deals with Mus musculus. Nature of the series: Antitumor activity against hEML4-ALK transgenic C57BL/6J mouse assessed as reduction in pulmonary tumor size at 30 to 100 mg/kg, po administered daily for 10 days and measured on day 7 and 11 by computed tomography scan analysis. The class given is functional, organism-based. The conditions noted are these: dose 30-100 mg/kg, time 7-11 day.

A short description of series [19]: Tmax in human NCI-H2228 cell xenografted NOD.CB17-Prkdcscid/J mouse plasma at 10 mg/kg/day for 5 days by HPLC-MS analysis. The class given is ADME, organism-based. The conditions noted are these: route po, time 5 day.

The source made the active and inactive calls. No cut-off for these calls is given here.

Chain of Proto-oncogene tyrosine-protein kinase ROS (P08922 whole entry): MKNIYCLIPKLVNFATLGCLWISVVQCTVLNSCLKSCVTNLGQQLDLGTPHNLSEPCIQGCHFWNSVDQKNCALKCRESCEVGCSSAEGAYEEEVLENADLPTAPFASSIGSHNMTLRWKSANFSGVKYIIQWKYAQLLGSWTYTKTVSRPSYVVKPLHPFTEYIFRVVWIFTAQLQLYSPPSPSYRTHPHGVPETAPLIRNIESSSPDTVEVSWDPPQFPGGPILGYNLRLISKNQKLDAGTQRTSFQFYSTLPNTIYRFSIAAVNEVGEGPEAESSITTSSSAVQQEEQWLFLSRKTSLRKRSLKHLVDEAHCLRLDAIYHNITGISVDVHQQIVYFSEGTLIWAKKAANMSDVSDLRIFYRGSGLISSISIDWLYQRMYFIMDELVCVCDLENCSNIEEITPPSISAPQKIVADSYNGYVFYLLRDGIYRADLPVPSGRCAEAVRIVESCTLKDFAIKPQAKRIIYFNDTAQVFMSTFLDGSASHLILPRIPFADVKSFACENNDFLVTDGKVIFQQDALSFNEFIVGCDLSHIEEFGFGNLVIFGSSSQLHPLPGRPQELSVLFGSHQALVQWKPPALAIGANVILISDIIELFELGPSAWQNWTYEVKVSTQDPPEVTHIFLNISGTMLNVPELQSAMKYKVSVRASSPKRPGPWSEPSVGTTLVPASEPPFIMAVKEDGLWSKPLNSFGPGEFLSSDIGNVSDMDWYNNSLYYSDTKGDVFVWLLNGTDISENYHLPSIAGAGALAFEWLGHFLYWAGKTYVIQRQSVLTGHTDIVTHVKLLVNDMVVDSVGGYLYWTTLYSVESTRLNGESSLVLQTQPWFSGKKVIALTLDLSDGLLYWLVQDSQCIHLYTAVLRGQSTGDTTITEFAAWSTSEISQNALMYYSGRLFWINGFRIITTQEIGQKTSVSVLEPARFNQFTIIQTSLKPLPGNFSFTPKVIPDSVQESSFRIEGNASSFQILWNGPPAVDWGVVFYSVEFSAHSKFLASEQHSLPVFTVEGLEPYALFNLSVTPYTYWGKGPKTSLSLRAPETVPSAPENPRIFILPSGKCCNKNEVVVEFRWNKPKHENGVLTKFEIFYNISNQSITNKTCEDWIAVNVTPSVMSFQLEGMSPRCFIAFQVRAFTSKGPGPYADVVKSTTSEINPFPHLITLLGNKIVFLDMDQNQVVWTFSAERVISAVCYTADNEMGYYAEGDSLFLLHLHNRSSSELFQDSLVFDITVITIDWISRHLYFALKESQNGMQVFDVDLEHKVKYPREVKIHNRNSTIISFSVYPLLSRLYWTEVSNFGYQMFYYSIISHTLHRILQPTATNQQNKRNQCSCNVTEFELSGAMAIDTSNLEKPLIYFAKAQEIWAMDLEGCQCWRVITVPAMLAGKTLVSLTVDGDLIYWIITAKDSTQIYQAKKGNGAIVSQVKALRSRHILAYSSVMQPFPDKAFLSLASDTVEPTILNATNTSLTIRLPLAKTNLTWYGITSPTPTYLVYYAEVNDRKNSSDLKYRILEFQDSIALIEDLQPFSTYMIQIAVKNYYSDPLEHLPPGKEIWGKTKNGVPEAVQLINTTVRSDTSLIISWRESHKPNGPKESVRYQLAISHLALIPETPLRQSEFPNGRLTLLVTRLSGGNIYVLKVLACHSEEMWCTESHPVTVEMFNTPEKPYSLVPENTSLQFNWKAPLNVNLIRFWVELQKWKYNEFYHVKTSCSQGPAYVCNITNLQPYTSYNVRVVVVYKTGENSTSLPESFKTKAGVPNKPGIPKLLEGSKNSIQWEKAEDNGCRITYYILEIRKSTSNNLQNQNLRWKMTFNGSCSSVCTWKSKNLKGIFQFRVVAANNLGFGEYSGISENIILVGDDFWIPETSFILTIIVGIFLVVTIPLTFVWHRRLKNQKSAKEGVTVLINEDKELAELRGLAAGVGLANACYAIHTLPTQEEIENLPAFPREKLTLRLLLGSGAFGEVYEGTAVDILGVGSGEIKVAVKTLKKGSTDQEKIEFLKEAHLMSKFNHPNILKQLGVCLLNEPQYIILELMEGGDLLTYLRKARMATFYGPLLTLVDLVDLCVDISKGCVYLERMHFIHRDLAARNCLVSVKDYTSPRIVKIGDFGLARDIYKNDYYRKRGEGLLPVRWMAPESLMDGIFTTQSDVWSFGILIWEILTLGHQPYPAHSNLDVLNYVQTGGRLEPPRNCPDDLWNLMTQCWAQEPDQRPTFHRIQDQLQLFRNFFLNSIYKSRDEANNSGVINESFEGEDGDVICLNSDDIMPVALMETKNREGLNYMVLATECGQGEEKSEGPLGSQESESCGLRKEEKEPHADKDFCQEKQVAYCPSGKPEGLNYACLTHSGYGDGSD
Chain of Tyrosine-protein kinase receptor TYRO3 (Q06418 whole entry): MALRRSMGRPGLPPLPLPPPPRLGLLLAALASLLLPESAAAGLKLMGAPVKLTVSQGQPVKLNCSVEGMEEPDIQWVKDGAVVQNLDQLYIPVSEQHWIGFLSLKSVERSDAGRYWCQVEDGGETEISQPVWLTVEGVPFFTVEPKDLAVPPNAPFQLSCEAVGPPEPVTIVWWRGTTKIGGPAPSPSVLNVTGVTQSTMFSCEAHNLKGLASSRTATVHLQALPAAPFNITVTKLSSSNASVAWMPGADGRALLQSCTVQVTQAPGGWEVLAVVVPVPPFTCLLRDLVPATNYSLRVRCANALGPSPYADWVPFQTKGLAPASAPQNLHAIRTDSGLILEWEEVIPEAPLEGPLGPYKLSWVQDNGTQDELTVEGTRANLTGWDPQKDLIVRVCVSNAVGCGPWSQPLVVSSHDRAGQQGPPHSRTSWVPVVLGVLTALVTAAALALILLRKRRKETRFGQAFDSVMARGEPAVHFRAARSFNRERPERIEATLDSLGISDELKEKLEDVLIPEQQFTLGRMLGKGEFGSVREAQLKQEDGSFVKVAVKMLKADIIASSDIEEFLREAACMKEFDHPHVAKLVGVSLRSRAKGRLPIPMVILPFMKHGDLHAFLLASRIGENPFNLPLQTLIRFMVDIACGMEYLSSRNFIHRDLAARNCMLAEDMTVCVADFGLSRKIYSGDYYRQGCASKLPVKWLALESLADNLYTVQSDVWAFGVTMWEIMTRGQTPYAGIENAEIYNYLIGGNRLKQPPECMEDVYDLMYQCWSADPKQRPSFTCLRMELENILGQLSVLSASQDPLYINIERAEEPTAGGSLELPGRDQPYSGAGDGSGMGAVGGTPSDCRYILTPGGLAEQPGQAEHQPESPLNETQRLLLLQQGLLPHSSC
Chain of Non-receptor tyrosine-protein kinase TNK1 (Q13470 whole entry): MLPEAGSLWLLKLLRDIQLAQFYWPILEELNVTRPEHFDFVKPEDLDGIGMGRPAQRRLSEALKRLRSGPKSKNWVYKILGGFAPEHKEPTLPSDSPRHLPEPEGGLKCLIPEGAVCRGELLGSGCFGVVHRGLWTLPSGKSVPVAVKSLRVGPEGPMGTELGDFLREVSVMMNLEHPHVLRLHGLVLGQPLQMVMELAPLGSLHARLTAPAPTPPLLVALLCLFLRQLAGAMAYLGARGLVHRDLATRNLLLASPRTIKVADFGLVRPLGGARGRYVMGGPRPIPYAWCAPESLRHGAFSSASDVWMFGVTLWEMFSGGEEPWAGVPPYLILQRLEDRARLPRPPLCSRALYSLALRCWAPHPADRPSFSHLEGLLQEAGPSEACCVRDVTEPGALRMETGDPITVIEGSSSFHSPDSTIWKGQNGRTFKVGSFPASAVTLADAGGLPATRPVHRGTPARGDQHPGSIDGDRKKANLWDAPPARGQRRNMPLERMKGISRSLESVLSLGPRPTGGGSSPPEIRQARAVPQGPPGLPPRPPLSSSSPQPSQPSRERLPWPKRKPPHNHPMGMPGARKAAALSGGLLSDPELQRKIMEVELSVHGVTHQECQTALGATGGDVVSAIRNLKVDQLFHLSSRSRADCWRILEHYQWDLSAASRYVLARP
Chain of Tyrosine-protein kinase Lck (P06239 whole entry): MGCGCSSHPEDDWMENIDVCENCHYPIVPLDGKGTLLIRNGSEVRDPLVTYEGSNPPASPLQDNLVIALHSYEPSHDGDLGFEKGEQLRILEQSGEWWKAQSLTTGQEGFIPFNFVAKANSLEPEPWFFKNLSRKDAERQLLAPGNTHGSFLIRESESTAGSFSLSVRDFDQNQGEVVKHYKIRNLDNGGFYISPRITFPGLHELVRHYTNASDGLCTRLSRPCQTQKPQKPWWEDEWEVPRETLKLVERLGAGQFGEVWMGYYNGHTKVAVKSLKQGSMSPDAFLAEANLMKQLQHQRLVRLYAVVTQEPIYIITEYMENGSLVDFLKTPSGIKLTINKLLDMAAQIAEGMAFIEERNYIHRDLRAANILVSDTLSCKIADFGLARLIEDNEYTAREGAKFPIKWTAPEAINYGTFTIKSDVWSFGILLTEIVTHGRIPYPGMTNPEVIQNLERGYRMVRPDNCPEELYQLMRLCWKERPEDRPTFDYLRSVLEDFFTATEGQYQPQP
Chain of Tyrosine-protein kinase FRK (P42685 whole entry): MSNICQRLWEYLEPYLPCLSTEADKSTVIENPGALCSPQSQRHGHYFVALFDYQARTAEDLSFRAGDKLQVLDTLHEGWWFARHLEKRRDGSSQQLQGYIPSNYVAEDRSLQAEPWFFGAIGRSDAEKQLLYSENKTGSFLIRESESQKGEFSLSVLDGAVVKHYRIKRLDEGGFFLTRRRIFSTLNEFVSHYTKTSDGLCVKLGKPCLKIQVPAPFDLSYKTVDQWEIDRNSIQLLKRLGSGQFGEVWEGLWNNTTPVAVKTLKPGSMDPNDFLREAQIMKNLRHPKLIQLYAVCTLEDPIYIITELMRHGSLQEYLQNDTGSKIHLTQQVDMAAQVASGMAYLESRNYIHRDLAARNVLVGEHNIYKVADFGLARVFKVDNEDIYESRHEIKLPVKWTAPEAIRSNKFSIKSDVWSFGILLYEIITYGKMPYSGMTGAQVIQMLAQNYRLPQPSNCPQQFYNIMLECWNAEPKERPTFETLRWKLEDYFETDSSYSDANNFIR
Description for EML4-ALK: Inhibition of EML4-ALK (unknown origin) transformed in mouse BaF3 cells by HTRF assay

Consider `COc1cc(N2CCC(N3CCN(C)CC3)CC2)ccc1Nc1ncnc(Nc2ccccc2S(=O)(=O)C(C)C)n1` [ASP-3026], for which the Cmax was 850 ng/g in series [1] and 508 ng/mL in series [14]. In addition, the half-inhibitory concentration (IC50) against EML4-ALK was 0.01 µM; in series [3], over 1 µM; against Ephrin type-A receptor 6 it was over 1 µM; in [4], 0.04 µM; in series [6], 0.0068 µM; in series [8], over 0.1 µM. Besides, the figures for the IC50 in [11] and in series [18] were 0.0089 µM and 0.0268 µM, respectively. Further, in series [2], the AUC at 120 h was 5990 ng·h/mL. Moreover, the Activity in the series with NCI-H2228 [5] turned out to be 78%; in series [15] it was 37%. For the same compound, the Tmax in series [7], in series [13] and in [19] was 4 h throughout. For the same compound, the Kp at 264 h in [9] was over 100. Also, the Kp at 120 h in series [10] turned out to be 18. In addition, the inhibition in vivo at 30 mg/kg with NCI-H2228 [12] is over 100%. In the series with NCI-H2228-Luc, this compound yielded an MST of over 90 days. Further, the outcome in the series on NCI-H2228 [16] and in the series with Mus musculus was Active. The same compound returned an AUC in [17] of 13600 ng·h/g.

(Values after ChEMBL document CHEMBL5661983, “The selective anaplastic lymphoma receptor tyrosine kinase inhibitor ASP3026 induces tumor regression and prolongs survival in non-small cell lung cancer model mice” (Mol Cancer Ther, 2014).)
